Tests used:
p110α/p85 = p110α/p85 (Homo sapiens, UniProt P42336); assay: Inhibition of isolated enzyme (lipid kinase assay, [γ33P]ATP, TLC); assay type: biochemical; conditions: recombinant enzyme, 100 μM ATP, 1 hr room temperature, average of two experiments
Procedure: (§1) Compounds were evaluated for their ability to inhibit Class I PI 3-kinase enzymes p110δ/p85, p110α/p85, and p110β/p85. Reaction mixtures comprising 0.1 μg of a recombinant enzyme, 10 μg of L-α-phosphatidylinositol, and 2× Lipid Kinase Buffer (40 mM Tris-HCl, pH 7.4, 200 mM NaCl, 1 mM EDTA), which contains either DMSO only as a control or the test compound in DMSO (the final DMSO concentration is 1%), were activated by the addition of an ATP mix (5 mM MgCl2, 100 μM ATP, and 0.1 μL [γ^33P]ATP). Reactions were incubated at room temperature for 1 hr, and then stopped by the addition of 1M HCl. The lipids were then extracted using a two step procedure. Firstly, 200 μL of chloroform/methanol (1:1) was added, the biphasic reactions mixed and centrifuged briefly, and the inorganic phase was removed and discarded. Following this, 80 μL of methanol:HCl (1:1) was added and the same procedure followed. The organic phase (70 μL) was then transferred to a clean 1.6 mL tube and the reactions were dried using a Speedvac, with no heating, for […]. The reactions were spotted onto TLC plates (Merck Ltd) and developed for 1 hr in propanol-1:2 M acetic acid (13:7). The TLC plates were then dried at room temperature and quantified using a phosphorimager (StormImager, Amersham). Nine compound concentrations were used for each test compound to determine its IC50 value. Each experiment was performed twice and the average IC50 value is used herein.

p110β/p85 = p110β/p85 (Homo sapiens, UniProt P42338); assay: as above; assay type: biochemical; conditions: recombinant enzyme, 100 μM ATP, 1 hr room temperature, average of two experiments
Chain of p110β/p85 (P42338 whole entry, species assumed): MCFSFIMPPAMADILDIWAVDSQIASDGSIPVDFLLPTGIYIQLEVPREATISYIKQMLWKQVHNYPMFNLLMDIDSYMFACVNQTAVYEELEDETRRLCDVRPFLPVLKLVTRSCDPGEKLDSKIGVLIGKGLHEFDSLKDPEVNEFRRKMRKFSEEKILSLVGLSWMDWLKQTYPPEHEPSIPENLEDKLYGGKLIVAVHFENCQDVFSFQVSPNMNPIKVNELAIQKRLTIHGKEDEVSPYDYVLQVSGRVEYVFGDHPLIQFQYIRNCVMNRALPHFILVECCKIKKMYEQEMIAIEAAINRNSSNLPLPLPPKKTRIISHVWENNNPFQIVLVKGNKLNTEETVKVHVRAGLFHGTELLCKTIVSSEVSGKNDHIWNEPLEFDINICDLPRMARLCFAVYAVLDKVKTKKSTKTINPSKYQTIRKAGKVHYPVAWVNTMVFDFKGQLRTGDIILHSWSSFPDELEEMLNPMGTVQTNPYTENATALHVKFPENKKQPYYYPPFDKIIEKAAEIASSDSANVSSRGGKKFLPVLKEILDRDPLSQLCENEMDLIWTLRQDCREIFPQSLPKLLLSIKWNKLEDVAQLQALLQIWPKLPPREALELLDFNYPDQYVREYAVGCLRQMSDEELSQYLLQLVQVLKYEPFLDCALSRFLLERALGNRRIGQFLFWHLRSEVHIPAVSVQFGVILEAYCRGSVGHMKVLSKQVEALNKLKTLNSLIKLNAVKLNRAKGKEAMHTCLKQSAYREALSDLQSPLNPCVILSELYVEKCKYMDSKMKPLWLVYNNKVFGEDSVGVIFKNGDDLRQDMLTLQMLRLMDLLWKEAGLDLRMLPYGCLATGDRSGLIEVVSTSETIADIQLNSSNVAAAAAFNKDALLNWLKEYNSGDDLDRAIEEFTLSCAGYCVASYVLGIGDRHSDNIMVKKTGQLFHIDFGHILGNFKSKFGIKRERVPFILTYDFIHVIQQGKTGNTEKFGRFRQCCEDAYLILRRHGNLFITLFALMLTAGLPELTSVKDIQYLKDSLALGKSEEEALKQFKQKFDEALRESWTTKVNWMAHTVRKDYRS
Chain of p110β/p85 (P27986 whole entry partner, species assumed): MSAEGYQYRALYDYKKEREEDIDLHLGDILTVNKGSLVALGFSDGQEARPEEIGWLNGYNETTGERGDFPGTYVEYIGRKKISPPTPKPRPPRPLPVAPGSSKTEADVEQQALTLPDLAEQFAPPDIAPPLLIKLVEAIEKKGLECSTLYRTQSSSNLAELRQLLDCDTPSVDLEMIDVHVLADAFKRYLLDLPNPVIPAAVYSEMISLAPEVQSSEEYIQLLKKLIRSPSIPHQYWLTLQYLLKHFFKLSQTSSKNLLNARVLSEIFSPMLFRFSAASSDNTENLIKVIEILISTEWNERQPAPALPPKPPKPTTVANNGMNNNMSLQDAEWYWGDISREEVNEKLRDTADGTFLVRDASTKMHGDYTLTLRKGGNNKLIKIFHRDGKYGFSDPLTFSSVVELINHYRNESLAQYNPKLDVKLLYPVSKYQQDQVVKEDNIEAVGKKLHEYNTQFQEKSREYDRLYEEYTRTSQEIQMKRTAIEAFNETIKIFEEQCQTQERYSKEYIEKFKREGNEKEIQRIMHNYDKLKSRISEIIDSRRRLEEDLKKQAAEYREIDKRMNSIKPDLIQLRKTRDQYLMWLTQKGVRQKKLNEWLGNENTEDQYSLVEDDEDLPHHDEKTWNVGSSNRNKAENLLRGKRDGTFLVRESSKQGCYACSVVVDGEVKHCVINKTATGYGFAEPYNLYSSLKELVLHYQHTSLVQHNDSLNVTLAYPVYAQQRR
Procedure: as §1

p110δ/p85 = p110δ/p85 (Homo sapiens, UniProt O00329); assay: as above; assay type: biochemical; conditions: recombinant enzyme, 100 μM ATP, 1 hr room temperature, average of two experiments
Chain of p110δ/p85 (O00329 whole entry, species assumed): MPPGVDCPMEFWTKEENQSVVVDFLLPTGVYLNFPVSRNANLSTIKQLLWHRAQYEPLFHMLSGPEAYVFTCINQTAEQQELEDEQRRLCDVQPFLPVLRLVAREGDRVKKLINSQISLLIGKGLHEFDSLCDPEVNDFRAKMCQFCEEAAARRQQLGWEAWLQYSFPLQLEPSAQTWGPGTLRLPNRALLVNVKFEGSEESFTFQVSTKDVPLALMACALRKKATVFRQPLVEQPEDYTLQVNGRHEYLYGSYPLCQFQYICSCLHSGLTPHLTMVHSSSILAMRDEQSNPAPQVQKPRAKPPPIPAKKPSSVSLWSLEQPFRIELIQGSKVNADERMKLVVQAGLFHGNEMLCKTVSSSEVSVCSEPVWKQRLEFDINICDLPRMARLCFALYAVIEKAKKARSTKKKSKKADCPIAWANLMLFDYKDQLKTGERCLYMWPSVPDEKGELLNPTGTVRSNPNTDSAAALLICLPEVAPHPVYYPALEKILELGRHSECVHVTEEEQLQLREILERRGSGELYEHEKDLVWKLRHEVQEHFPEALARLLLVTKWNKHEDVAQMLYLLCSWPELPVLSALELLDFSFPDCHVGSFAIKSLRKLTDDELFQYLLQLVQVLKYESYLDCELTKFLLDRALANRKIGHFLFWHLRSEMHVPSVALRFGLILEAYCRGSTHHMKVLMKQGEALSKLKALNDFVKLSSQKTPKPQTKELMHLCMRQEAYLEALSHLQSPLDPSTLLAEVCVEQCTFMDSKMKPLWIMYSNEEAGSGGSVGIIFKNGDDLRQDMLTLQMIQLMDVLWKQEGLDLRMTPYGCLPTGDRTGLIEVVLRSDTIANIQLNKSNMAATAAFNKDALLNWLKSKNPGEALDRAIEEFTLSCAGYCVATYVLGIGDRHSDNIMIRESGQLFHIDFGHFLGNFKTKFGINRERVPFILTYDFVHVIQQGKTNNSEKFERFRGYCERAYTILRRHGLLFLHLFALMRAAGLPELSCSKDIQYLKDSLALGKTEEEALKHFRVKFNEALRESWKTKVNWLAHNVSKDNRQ
Chain of p110δ/p85 (P27986 whole entry partner, species assumed): as the sequence (P27986 whole entry partner, species assumed) above
Procedure: as §1

NZB5 = assay: Cellular growth inhibition (3H-thymidine incorporation); assay type: cell-based; conditions: Homo sapiens, five days incubation, 3H-thymidine over the last 6 hrs, read-out: Cell IC50* NZB5
Procedure: (§2) The compounds were evaluated against two early passage human cell lines NZB5 and NZOV9 (Marshall et al., Oncol. Res. 2004, 14, 297). The cells were grown in ITS medium (α-modified minimal essential medium supplemented insulin, transferrin, selenite, and 5% fetal bovine serum) and grown on 96-well tissue culture plates under an atmosphere of 5% O2, 5% CO2, and 90% N2. Individual wells contained 500-1,000 cells (depending on the growth rate) in a volume of 150 μL. Compounds were added at 10-fold concentration steps to a maximum of 20 μM and plates were incubated for five days, with ^3H-thymidine being added over the last 6 hrs. Cells were harvested and incorporated radioactivity measured. Duplicate samples were analyzed for each compound dose with multiple control samples. Data were fitted by a least-squares method to an exponential of the form y=y0+ae^−bx, where y is the radioactivity (corrected for background and normalized to 100% of the control), x is the […], and y0, a, and b are variables, and the IC50 value defined as the compound concentration reducing ^3H-thymidine levels by 50%.

NZOV9 = assay: as above; assay type: cell-based; conditions: Homo sapiens, five days incubation, 3H-thymidine over the last 6 hrs, read-out: Cell IC50* NZOV9
Procedure: as §2

Chain of p110α/p85 (P42336 whole entry): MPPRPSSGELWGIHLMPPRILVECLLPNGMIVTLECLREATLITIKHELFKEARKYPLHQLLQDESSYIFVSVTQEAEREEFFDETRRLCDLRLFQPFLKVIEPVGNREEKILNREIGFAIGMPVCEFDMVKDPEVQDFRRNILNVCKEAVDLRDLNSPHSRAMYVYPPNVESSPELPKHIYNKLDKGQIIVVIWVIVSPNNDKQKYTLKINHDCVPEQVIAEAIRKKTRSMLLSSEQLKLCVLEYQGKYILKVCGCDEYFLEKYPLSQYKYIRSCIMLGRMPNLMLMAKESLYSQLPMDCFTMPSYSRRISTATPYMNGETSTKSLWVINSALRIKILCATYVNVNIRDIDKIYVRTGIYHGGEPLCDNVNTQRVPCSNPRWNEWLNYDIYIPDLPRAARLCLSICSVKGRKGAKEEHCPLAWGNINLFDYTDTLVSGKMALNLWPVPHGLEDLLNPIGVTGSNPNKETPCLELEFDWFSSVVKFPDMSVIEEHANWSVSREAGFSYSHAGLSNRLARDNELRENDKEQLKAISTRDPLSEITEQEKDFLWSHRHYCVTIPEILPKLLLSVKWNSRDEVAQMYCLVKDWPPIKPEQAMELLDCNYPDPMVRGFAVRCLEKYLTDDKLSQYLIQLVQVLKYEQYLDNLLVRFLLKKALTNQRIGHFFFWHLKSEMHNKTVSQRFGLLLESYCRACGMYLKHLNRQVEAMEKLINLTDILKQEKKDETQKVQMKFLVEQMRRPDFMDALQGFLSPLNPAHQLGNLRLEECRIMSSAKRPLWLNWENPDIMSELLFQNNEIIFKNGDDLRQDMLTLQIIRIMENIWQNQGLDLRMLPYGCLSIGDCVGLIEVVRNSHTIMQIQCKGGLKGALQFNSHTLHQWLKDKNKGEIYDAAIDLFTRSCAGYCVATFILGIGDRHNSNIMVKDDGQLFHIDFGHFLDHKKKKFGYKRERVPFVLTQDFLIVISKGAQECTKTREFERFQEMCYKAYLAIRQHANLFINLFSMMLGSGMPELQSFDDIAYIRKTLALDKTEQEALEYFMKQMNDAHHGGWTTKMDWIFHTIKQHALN
Chain of p110α/p85 (P27986 whole entry partner): as the sequence (P27986 whole entry partner, species assumed) above

SMILES | IC50 (p110α/p85) | IC50 (p110β/p85) | IC50 (p110δ/p85) | melting point | IC50 (NZB5) | IC50 (NZOV9)
FC(F)c1nc2ccccc2n1-c1nc(NCc2ccccc2)nc(N2CCOCC2)n1 [Example 8, N-benzyl-4-[2-(difluoromethyl)-1H-benzimidazol-1-yl]-6-(4-morpholinyl)-1,3,5-triazin-2-amine] | 100 to 1000 nM | < 100 nM | < 100 nM | 185 to 188 °C | 100 to 1000 nM | 100 to 1000 nM
CS(=O)(=O)c1nc2ccccc2n1-c1nc(Nc2cccnc2)nc(N2CCOCC2)n1 [Example 5, 4-[2-(methylsulfonyl)-1H-benzimidazol-1-yl]-6-(4-morpholinyl)-N-(3-pyridinyl)-1,3,5-triazin-2-amine] | 100 to 1000 nM | 100 to 1000 nM | < 100 nM | 208 to 211 °C | 100 to 1000 nM | 100 to 1000 nM
FC(F)c1nc2ccccc2n1-c1nc(Oc2ccccc2)nc(N2CCOCC2)n1 [Example 10, 2-(difluoromethyl)-1-[4-(4-morpholinyl)-6-phenoxy-1,3,5-triazin-2-yl]-1H-benzimidazole] | > 10000 nM | > 10000 nM | 1000 to 10000 nM | 228 to 231 °C | > 10000 nM | 1000 to 10000 nM
CSc1nc2ccccc2n1-c1nc(Nc2cccnc2)nc(N2CCOCC2)n1 [Example 4, 4-[2-(methylsulfanyl)-1H-benzimidazol-1-yl]-6-(4-morpholinyl)-N-(3-pyridinyl)-1,3,5-triazin-2-amine] | 1000 to 10000 nM | 1000 to 10000 nM | 100 to 1000 nM | 240 to 241 °C | < 100 nM | 100 to 1000 nM
FC(F)c1nc2ccccc2n1-c1nc(NCc2cccnc2)nc(N2CCOCC2)n1 [Example 14, 4-[2-(difluoromethyl)-1H-benzimidazol-1-yl]-6-(4-morpholinyl)-N-(3-pyridinylmethyl)-1,3,5-triazin-2-amine] | 100 to 1000 nM | 100 to 1000 nM | < 100 nM | 160 to 161 °C | 1000 to 10000 nM | 100 to 1000 nM
O=S(=O)(c1ccccc1)c1nc(N2CCOCC2)nc(-n2c(C(F)F)nc3ccccc32)n1 [Example 12, 2-(difluoromethyl)-1-[4-(4-morpholinyl)-6-(phenylsulfonyl)-1,3,5-triazin-2-yl]-1H-benzimidazole] | 1000 to 10000 nM | 1000 to 10000 nM | 1000 to 10000 nM | 237 to 239 °C | > 10000 nM | > 10000 nM
COc1ccncc1Nc1nc(N2CCOCC2)nc(-n2c(C(F)F)nc3c(OC)cccc32)n1 [Example 27, 4-[2-(difluoromethyl)-4-methoxy-1H-benzimidazol-1-yl]-N-(4-methoxy-3-pyridinyl)-6-(4-morpholinyl)-1,3,5-triazin-2-amine] | < 100 nM | 100 to 1000 nM | < 100 nM | 239 to 241 °C | 100 to 1000 nM | < 100 nM
FC(F)c1nc2ccccc2n1-c1nc(NCc2ccccn2)nc(N2CCOCC2)n1 [Example 13, 4-[2-(difluoromethyl)-1H-benzimidazol-1-yl]-6-(4-morpholinyl)-N-(2-pyridinylmethyl)-1,3,5-triazin-2-amine] | < 100 nM | < 100 nM | < 100 nM | 192 to 193 °C | 100 to 1000 nM | 100 to 1000 nM
CN(c1ccccc1)c1nc(N2CCOCC2)nc(-n2c(C(F)F)nc3ccccc32)n1 [Example 7, 4-[2-(difluoromethyl)-1H-benzimidazol-1-yl]-N-methyl-6-(4-morpholinyl)-N-phenyl-1,3,5-triazin-2-amine] | 100 to 1000 nM | 100 to 1000 nM | 100 to 1000 nM | 160 to 162 °C | 100 to 1000 nM | 100 to 1000 nM
COc1cc(Nc2nc(N3CCOCC3)nc(-n3c(C(F)F)nc4c(OC)cccc43)n2)ncn1 [Example 32, 4-(2-(difluoromethyl)-4-methoxy-1H-benzimidazol-1-yl)-N-(6-methoxypyrimidin-4-yl)-6-morpholino-1,3,5-triazin-2-amine] | < 100 nM | 100 to 1000 nM | < 100 nM | 256 to 259 °C | > 10000 nM | < 100 nM

Second part, led by results:

IC50 (p110α/p85) | IC50 (p110β/p85) | IC50 (p110δ/p85) | melting point | SMILES | IC50 (NZB5) | IC50 (NZOV9)
< 100 nM | < 100 nM | < 100 nM | 201 to 202 °C | COc1ccc(Nc2nc(N3CCOCC3)nc(-n3c(C(F)F)nc4c(OC)cccc43)n2)cn1 [Example 28, 4-[2-(difluoromethyl)-4-methoxy-1H-benzimidazol-1-yl]-N-(6-methoxy-3-pyridinyl)-6-(4-morpholinyl)-1,3,5-triazin-2-amine] | < 100 nM | < 100 nM
< 100 nM | 100 to 1000 nM | < 100 nM | 261 to 263 °C | COc1cccc2c1nc(C(F)F)n2-c1nc(Nc2cccnn2)nc(N2CCOCC2)n1 [Example 33, 4-[2-(difluoromethyl)-4-methoxy-1H-benzimidazol-1-yl]-6-(4-morpholinyl)-N-(3-pyridazinyl)-1,3,5-triazin-2-amine] | 100 to 1000 nM | < 100 nM
< 100 nM | 100 to 1000 nM | < 100 nM | 161 to 163 °C | COc1ccncc1Nc1nc(N2CCOCC2)nc(-n2c(C(F)F)nc3ccccc32)n1 [Example 26, 4-[2-(difluoromethyl)-1H-benzimidazol-1-yl]-N-(4-methoxy-3-pyridinyl)-6-(4-morpholinyl)-1,3,5-triazin-2-amine] | 100 to 1000 nM | 100 to 1000 nM
< 100 nM | 100 to 1000 nM | < 100 nM | 199 to 201 °C | FC(F)c1nc2ccccc2n1-c1nc(-c2cccnc2)nc(N2CCOCC2)n1 [Example 47, 2-(difluoromethyl)-1-[4-(4-morpholinyl)-6-(3-pyridinyl)-1,3,5-triazin-2-yl]-1H-benzimidazole] | 100 to 1000 nM | 100 to 1000 nM
< 100 nM | 100 to 1000 nM | < 100 nM | 260 to 262 °C | COc1cccc2c1nc(C(F)F)n2-c1nc(Nc2ccc(Cl)nc2)nc(N2CCOCC2)n1 [Example 30, N-(6-chloro-3-pyridinyl)-4-[2-(difluoromethyl)-4-methoxy-1H-benzimidazol-1-yl]-6-(4-morpholinyl)-1,3,5-triazin-2-amine] | < 100 nM | < 100 nM
< 100 nM | 100 to 1000 nM | < 100 nM | 221 to 223 °C | COc1cccc2c1nc(C(F)F)n2-c1nc(Nc2cccnc2)nc(N2CCOCC2)n1 [Example 2, 4-[2-(difluoromethyl)-4-methoxy-1H-benzimidazol-1-yl]-6-(4-morpholinyl)-N-(3-pyridinyl)-1,3,5-triazin-2-amine] | < 100 nM | < 100 nM
< 100 nM | < 100 nM | < 100 nM | 228 to 230 °C | FC(F)c1nc2ccccc2n1-c1nc(Nc2cccnc2)nc(N2CCOCC2)n1 [Example 1, 4-[2-(difluoromethyl)-1H-benzimidazol-1-yl]-6-(4-morpholinyl)-N-(3-pyridinyl)-1,3,5-triazin-2-amine] | 100 to 1000 nM | 100 to 1000 nM
< 100 nM | < 100 nM | < 100 nM | 200 to 201 °C | COc1cccc2c1nc(C(F)F)n2-c1nc(N2CCOCC2)nc(N(C)c2cccnc2)n1 [Example 3, 4-[2-(difluoromethyl)-4-methoxy-1H-benzimidazol-1-yl]-N-methyl-6-(4-morpholinyl)-N-(3-pyridinyl)-1,3,5-triazin-2-amine] | 100 to 1000 nM | < 100 nM
< 100 nM | 100 to 1000 nM | < 100 nM | 225 to 226 °C | Cn1cc(Nc2nc(N3CCOCC3)nc(-n3c(C(F)F)nc4ccccc43)n2)cn1 [Example 25, 4-[2-(difluoromethyl)-1H-benzimidazol-1-yl]-N-(1-methyl-1H-pyrazol-4-yl)-6-(4-morpholinyl)-1,3,5-triazin-2-amine] | 100 to 1000 nM | 100 to 1000 nM
